Assay [1] has as its target T1, L55P variant transthyretin (Homo sapiens, UniProt P02766, L75P). In words: Inhibition of transthyretin aggregation at acidic pH (turbidity at 400 nm). The class given is biochemical. The following applies: L55P 3.6 μM, pH 5.0; for Aggregation of transthyretin, Mean (1:1): ligand 3.6 μM; for Aggregation of transthyretin, Mean (3:1): ligand 10.8 μM. On the procedure: (§1) 3.3.2 Inhibition of transthyretin aggregation by 4ajm15: In pilot experiments, transthyretin aggregates were formed from wild type transthyretin (3.6 μM) after incubation at acidic pH for 3 d at 37° C. (Colon and Kelly, 1992). The efficacy of 4ajm15 as an inhibitor of transthyretin aggregate formation was then compared with other transthyretin ligand compounds. […] After 30 min at 37° C., the pH was adjusted to pH 4.4 (with 0.2 M sodium acetate buffer pH 4.0), and the ˜1 ml mixtures were incubated unstirred for 3 d at 37° C.
(§2) Using the same method the activities of mds84 and 4ajm15 as inhibitors of the aggregation of both wild type transthyretin and the most aggressively aggregating transthyretin variant, L55P, were evaluated in triplicate with both proteins at 3.6 μM and with one (3.6 μM) or 3 equivalents (10.8 μM) of each ligand. Wild type transthyretin was studied at pH 4.4 and L55P at pH 5.0. […] Mean values and standard deviations are shown in Table 2 and in FIG. 4, where results with 1:1 molar ratio are shown cross hatched and 3:1 molar ratio in open bars.

Assay [2] deals with T1, L55P variant transthyretin. The assay is described as follows: Differential scanning calorimetry of transthyretin with ligand. The class given is binding. The following applies: five fold molar excess of ligand. For orientation: Differential scanning calorimetry records heat flow against a reference as temperature is scanned.
Assay [3] has as its target T1, L55P variant transthyretin. In words: Mass spectrometric analysis of subunit exchange. The class given is biochemical. Set-up: made in house. The following applies: L55P variant, decreasing molar ratios of ligand. On the procedure: 4.2 Mass spectrometric analysis of subunit exchange. Recombinant wild type, L55P and V30M transthyretin variants were biosynthetically labelled with isotopes [^15N] and [^15N, ^13C] as previously described (Keetch C A et al, 2005). Immediately prior to analysis, proteins were buffer exchanged into 20 mM ammonium acetate, pH 7.0 using Micro Biospin columns (Bio-Rad, UK). The subunit composition of transthyretin was monitored as a function of time by incubating an equimolar solution (4.4 μM) of [^15N] and [^15N, ^13C] labelled proteins in the presence of 2-fold molar excess of 4ajm15 in DMSO or 2.5% DMSO alone as a control. Each experiment was carried out in triplicate at room temperature and at 4° C. as well, since it is known that subunit exchange is accelerated at low temperatures. Nanoflow ESMS was performed on a QToF2 instrument (Waters/Micromass UK, Ltd.) modified for high mass operation (Sobott et al, (2002)) and calibrated externally using caesium iodide (100 mg/ml). Each solution, 1.5 μl, was electrosprayed from gold coated borosilicate capillaries prepared in-house as described (Nettleton E J, et al, 1998). To preserve the non-covalent interactions in the transthyretin tetramer, the MS parameters applied were: capillary voltage 1.6 kV, sample cone 160 V, extractor cone 20 V, ion transfer stage pressure 7.0×10 ^−3 mbar, quadrupole analyzer pressure 9.5×10^−4 mbar and ToF analyzer pressure 1.7×10^−6 mbar. Data were processed with MassLynx software (Waters/Micromass UK, Ltd.) and are presented with minimal smoothing and without background subtraction.
This most unstable transthyretin variant rapidly undergoes spontaneous and extensive subunit exchange, as illustrated in FIG. 8. FIGS. 9-11 show the effects of decreasing molar ratios of mds84 on inhibition of subunit exchange. […] At lower molar ratios of mds84 some exchange takes place but the transthyretin molecules which bind mds84 are still completely stabilized.

Assay [4] addresses T2, wild type transthyretin (Homo sapiens, UniProt P02766). In words: Inhibition of transthyretin aggregation at acidic pH (turbidity at 400 nm). It is filed as biochemical. Also noted: isolated from pooled normal human plasma, was obtained from Scipac; purchased Scipac Ltd, Sittingbourne, Kent, UK; host or cells: pooled normal human plasma. The following applies: wild type 3.6 μM, pH 4.4, 3 d 37° C.; for Aggregation of transthyretin, Mean (1:1): ligand 3.6 μM; for Aggregation of transthyretin, Mean (3:1): ligand 10.8 μM. On the procedure:
3.3.1 Wild type transthyretin. The purified wild type transthyretin (liquid and lyophilised) used in these experiments, isolated from pooled normal human plasma, was obtained from Scipac, (Sittingbourne, Kent, UK). Protein concentration was determined by absorbance at 280 nm after correction for light scattering at 320 nm using the absorption coefficient E1 cm^1%=14.0. […] Nano electrospray ionisation mass spectrometry confirmed the presence of normal and cysteinylated transthyretin monomers (Terazaki et al, 1998) under denaturing conditions, and solvent-bound transthyretin tetramer (Nettleton et al, 1998) under mild desolvation conditions.
as §1, §2

The target of assay [5] is T2, wild type transthyretin. The assay is described as follows: Differential scanning calorimetry of transthyretin with ligand. The class given is binding. Set-up: isolated from pooled normal human plasma, was obtained from Scipac; purchased Scipac Ltd, Sittingbourne, Kent, UK; host or cells: pooled normal human plasma. The following applies: five fold molar excess of ligand.

The target of another assay is T3, transthyretin (Homo sapiens, UniProt P02766).
T3 construct: Native tetrameric transthyretin was purified from fractionated human plasma; from tissue; host or cells: human plasma
The assay is described as follows: Intrinsic fluorescence quenching of transthyretin by ligand titration. It is filed as binding. The following applies: 1 μM transthyretin, PBS pH 7.4, ligand 0-2 μM, excitation 280 nm, 20° C. How it is done:
3.2.1. Binding of 4ajm15 and mds84 by transthyretin. The interactions between the ligands 4ajm15 or mds84 and transthyretin were studied by monitoring intrinsic fluorescence in the emission range 300-500 nm on excitation at 280 nm using a Perkin Elmer LS55 fluorimeter and a standard 1 cm path length quartz cell at 20° C. Quenching of tryptophan was achieved by titrating 1 μM transthyretin in PBS, pH 7.4 with increasing concentrations of each ligand in the range 0-2 μM (FIG. 2A). […] At the same time the changes in 4ajm15 fluorescence upon binding to the protein were monitored in the emission range 400-600 nm and excitation at 340 nm that is the wavelength specific for 4ajm15 excitation. In these conditions, accumulation of the spectra highlights an isosbestic point at 483 nm (FIG. 2B). The same results were achieved by using mds84 (not shown). The results of the titration of 4ajm15 in presence and absence of transthyretin support a model of binding in which both the binding sites are simultaneously occupied by the palindromic ligand.
In each case increasing concentrations of ligand (0-2 μM) were added to 1 μM protein. The arrow in FIG. 2B indicates the isosbestic point at 483 nm occurring on formation of the protein ligand complex. […] The percent quenching represents ΔF/F0 where F0 is fluorescence intensity prior to the addition of ligands and AF is the decrease in fluorescence at a given ligand concentration.

Take `O=C(O)c1ccc2nc(-c3cc(Cl)cc(Cl)c3)oc2c1` [Fx-1006A, 2-(3,5-dichlorophenyl)benzo oxazole-6-carboxylic acid, reference compound]: in assay [1], the “Aggregation of transthyretin, Mean (1:1)” value is 32 per cent of control with DMSO alone and the “Aggregation of transthyretin, Mean (3:1)” value was 16.8 per cent of control with DMSO alone. Moreover, in assay [2], the “Tm of L55P variant transthyretin with the ligand” value stood at 98.3 °C and the “increase in Tm of L55P variant transthyretin” value was 3.7 °C. The “ligand bound per mole of transthyretin for complete stabilization” value in assay [3] is on record as “two moles”. Further, on wild type transthyretin [4], the “Aggregation of transthyretin, Mean (1:1)” value is listed as 12.5 per cent of control with DMSO alone and the “Aggregation of transthyretin, Mean (3:1)” value is recorded as 1.14 per cent of control with DMSO alone. At wild type transthyretin [5], the “Tm of wild type transthyretin with the ligand” value came to 104.9 °C and the “increase in Tm of wild type transthyretin” value was found to be 4.6 °C.

With `N[C@@H](Cc1cc(I)c(Oc2cc(I)c(O)c(I)c2)c(I)c1)C(=O)O` [T4, 3,5,3′,5′-Tetraiodo-L-Thyronine, reference compound], the “intrinsic fluorescence of transthyretin remaining after titration” value at transthyretin worked out at 60%. Also, in assay [1], the “Aggregation of transthyretin, Mean (1:1)” value was 55 per cent of control with DMSO alone and the “Aggregation of transthyretin, Mean (3:1)” value is recorded as 22 per cent of control with DMSO alone. In addition, at wild type transthyretin [4], the “Aggregation of transthyretin, Mean (1:1)” value is 25 per cent of control with DMSO alone and the “Aggregation of transthyretin, Mean (3:1)” value is 1.2 per cent of control with DMSO alone.
